Experiments:
[1] = tested on: STING knockout THP1 Dual cell line; assay: STING knockout THP1 Dual cell line reporter assay; assay type: cell-based, human; conditions: FIG. 19C-D
[2] = tested on: Interferon-β, CXCL10, TNF, IL-6; assay: PCR analysis of kinetics of STING-mediated gene expression; assay type: cell-based
[3] = tested on: GFP-STING expressing murine embryonic fibroblasts; conditions: FIG. 21
IRF and NF-kb pathway = assay: THP-1 Dual reporter assay of IRF and NF-kb pathway activation; assay type: cell-based, human; conditions: FIG. 19A-B
Procedure: Activation of STING. THP1-Dual cells (InvivoGen) were cultured in Roswell Park Memorial Institute (RPMI) 1640 Medium (Gibco) supplemented with 2 mM L-glutamine, 25 mM HEPES, 10% heat-inactivated fetal bovine serum (HI-FBS; Gibco), 100 U mL^−1, penicillin/100 μg mL^−1, streptomycin (Gibco), and 100 μg/mL Normocin. Cells were subjected to 10 μg/mL Blasticidin and 100 μg/mL Zeocin for continual selection after every cell passage. 96-well plates (REF 655180; Greiner Bio-One) were used for screening agonist activity. Reporter cells were seeded at 25,000 cells/well in 100 μL media and treatments were administered in 100 μL of medium. Results were collected 24 hours after treatment using a Quanti-Luc™ (InvivoGen) assay on cell supernatants following manufacturer's instructions. Luminescence was quantified using a plate reader (Synergy H1 Multi-Mode Microplate Reader; Biotek) after supernatants were transferred to opaque-bottom 96-well plates (REF 655073; Greiner Bio-One).

In the case of “diABZI(CTA)-DMA-50k [50 kDa diABZI-DMA (33)]”, the “IRF and NF-κβ responses in STING knockout cells” value [1] is reported as “lack of activity”, the “time to activation of STING signaling after endocytosis” value [2] is reported as at most 2 h and the “STING activation dynamics (STING-puncta, confocal)” value [3] is reported as “delayed STING activation”. The “IRF and NF-kb pathway activation” value (IRF and NF-kb pathway) was “both signaling pathways are engaged”.
